# According to patent US20080226565A1, “Anticariogenic Proteins & Peptides & Saccharides” (priority 2004, published 2008):
# How the values were obtained:
# Parameters in all cases: species or system human
# [1] = In-vivo: tooth samples treated with peptide, 12 hours in the oral cavity, then acetic acid, Knoop hardness
# Method: In another experiment, 126 sterilized tooth samples where treated with a variety of peptides, fixed to the device and positioned after the lower jaw in the oral cavity of 5 volunteers. The device remained in the oral cavity for a period of 12 hours after which the teeth where removed, cleaned and subjected to a drop of acetic acid (0.1N, 30 min., 37° C). Subsequently the acid was removed, the teeth where cleaned and the hardness was measured (Knoop method). The depth of penetration increased 8.82 μm, 5.40 μm, 5.32 μm and 3.77 μm respectively for teeth treated as blanco with 4.2% casein phosphopeptide e-polylysine copolymer, 7.5% phosvitin and with 4.2% bisphosphonylated e-polylysine. The p-values are respectively 0.000, 0.000 and 0.004 for casein phosphopeptide e-polylysine copolymer, bisphosphonylated e-polylysine and phosvitin.
# (§1) Tooth samples have been cut in horizontal slices (thickness: 0.3 to 1 mm) with a Leitz 1600 tooth cutter with horizontal cutting blade; the slices are cut manually (with a bore) into small tooth samples that contain a small part of the original tooth surface. The tooth sample is positioned in a small plastic tube, that has been cut from a long plastic tube with 6 mm external diameter. The length of the tube is 3 to 6 mm. The inner part of the tube is filled with a polymer that hardens under light (Photoclearfil Bright; Kuraray). The tooth sample is positioned in the soft polymer inside the tube, in such a way that the original tooth surface is just surfacing above the tube. Finally the polymer is hardened with a light source. The tooth surface is polished with Struers silicon carbid paper (800-4000) and the hardness is measured 5 times on each of the samples under the Letiz Wetzlar microscope (weight on needle: 50 p). Tooth samples with a maximum average depth of penetration of 43 μm are retained for use in the oral cavity.
# The tooth-samples are fixed to a device that has been described in the chapter “Description of the invention ( chapter: In-vivo experiments)” and the device is positioned in the oral cavity after the lower jaw.
# A drop from a solution containing either, e-polylysine, CPP, bisphoshphonylated e-polylysine, casein phosphopeptide epsilon-polylysine copolymer or partially hydrolysed phosvitin has been positioned at the surface of tooth samples for a period of 30 minutes at 37 C.; the drop was removed and the procedure was repeated once more. All solutions contained also 3.1% CaCl2.2H2O and 1.7% KH2PO4 (except for the one containing e-polylysine).
# The tooth surface was cleaned with a soft paper towel until it was visibly clean. Four such tooth samples where fixed to the device and located in the oral cavity behind the lower jaw. They resided in the oral cavity for a period of 12 hours (only to be removed during eating). Subsequently, they where removed, cleaned and the tooth surface was treated with a drop of acetic acid (0.1N, 30 min., 37° C.); the acid was removed, the tooth was washed with deionized water and the hardness was evaluated.
# A: type of peptide ingredient in the solution (% on a w/w basis versus water). (*): the teeth where submerged (30 min.) in a saliva batch and dried afterwards on air, before they where treated with a solution that contained bisphosphonylated e-polylysine. B: Average initial hardness of the tooth surface; μm (st. dev.) C: Average hardness after treatment, after residing in the oral cavity and treatment with acid D: The average change in hardness (C−B) E: p-value (against blanco) of the Mann-Whitney statistical test F: the number of tooth samples that where treated with a specific formulation; hardness on each of the tooth samples was measured five times and an average value was calculated; most often 4 tooth samples per person; 5 volunteers participated to the experiment; the 132 tooth samples where randomized into groups (of 4 teeth) with the same average hardness value.
# [2] = Determination of the PF-value: Knoop micro hardness of tooth samples coated with product, then saliva and acetic acid (in-vitro)
# From the text: The capacity to protect teeth against caries can be measured with a technique well known in the art (U.S. Pat. No. 5,279,814). Demineralization with acid, decreases the hardness of the tooth surface. The hardness can be quantified indirectly by measuring the depth of penetration of a needle in the surface (measurement of micro hardness). With this procedure, so called “Knoop” method, the needle is penetrating the surface under the pressure of constant weight and leaves a mark on the surface that allows the calculation of the depth of penetration. The more the tooth is suffering from demineralization, the softer its surface will get and the larger the depth of penetration will be (Knoop F., Peters C. G., Emerson W. B., A Sensitive Pyramidal Diamond Tool for Identation Measurments, J. Res. Natn. Bur. Stand. 23, 39-61 (1939).
# The procedure includes the determination of the hardness of a human tooth sample with the Knoop method. Subsequently, the tooth is treated with an experimental protecting product outside the oral cavity.
# It is cleaned softly with a paper towel until the coating is invisible.
# Subsequently the tooth sample is submerged in a batch of human saliva in order to simulate the conditions in the oral cavity. After removal from the saliva batch (after 30 min.) it is treated with acid over a constant time period of 30 min. at 37° C. The acid is washed away, the tooth is dried on air and the hardness is measured again. The change in hardness (delta P in μm) is obtained by comparing with the hardness of the tooth before treatment. This experiment is repeated on other tooth samples. The effect of acid on unprotected teeth is obtained by carrying out the same procedure but without the use of an experimental protecting product (delta Pa). The protecting capacity (“PF” protection factor) of an experimental protecting compound can be defined as: […]
# The ability of a product to protect teeth (PF-value) is determined with the Knoop method. A tooth sample, size 3×3×3 mm is cut from a human tooth and embedded into polymerizing resin in such a way that the surface of the tooth sample appears on the surface of the (resin) cube after the resin has become solid. The surface of the tooth is mechanically polished with rotating silicon carbide abrasive paper (Struers P1200-P2400-P4000) and the micro hardness of the enamel is determined with a Knoop diamant needle (Leitz-Wetzlar;
# microdurometer “Durimet”; weight 50 gr; penetration-time: 30 seconds (Collys et al., J. Dent. Res. 1990; 69: 458-462)).
# The penetration leaves a mark on the tooth surface, which is related to the depth of penetration (μm) and which can be analyzed under the microscope. […] The determination of the depth of penetration is repeated six times on each of the tooth samples and the average value is calculated. In order to determine the effect of acid on the hardness of the surface, use is made of an acetic acid buffer from Merck (pH 5; 0.1N). One drop of acid is positioned on the enamel for a period of 30 minutes at 37° C. The sample is cleaned with demineralized water and dried. The hardness is measured again according to the method of Knoop. This procedure is repeated 4 times, which means that the sample has been subjected to acid for a total period of two hours.
# A graph (Y: penetration depth μm; X: 5 treatment stages) can be made on the basis of 5 average values (each of them based on six measurement), one obtained before treatment with acid, and the other 4 obtained after each of the 4 treatment-stages with acid. A logaritmic regressionline is calculated.
# [3] = In-vivo: radiated tooth samples treated with protector, 5 days in the oral cavity, Knoop hardness; conditions: for delta: change of hardness (increase of depth of penetration): radiation + 5 days in oral cavity, 0.1% fluoride or 4% bisphosphonate e-polylysine with CaCl2 and KH2PO4
# From the text: A device is constructed that can contain up to 6 experimental tooth samples for positioning in the oral cavity. […] The construction of the experimental tooths samples is outlined in chapter C.2.“Results; in-vivo experiments”. In the oral cavity, the tooth samples are positioned in the device in such a way that the enamel surfaces are subjected to physical contact with the tongue and are submerged in saliva. […] In experiments where the device is residing a long time period in the oral cavity (5 days and more), a metal network is positioned just above the surface of the experimental teeth, in order to provide support for the bacteria and stimulate it's growth path. It is also possible to measure the residual protection competence by removing the tooth samples from the oral cavity at the end of the selected residence time and treating them with acid under laboratory conditions.
# The device was positioned after the lower jaw in the oral cavity for a period of five days. After removal from the oral cavity, the samples where cleaned and the hardness was measured.
# as §1
# Tooth samples have been subjected to a radiation dose that is equal to the amount that is given to patients with oral cancer (20 Gray) and have been sterilized. […] A drop of the solution was positioned on the tooth surface and allowed to reside for a period of 30 minutes at 37 C.; the procedure was repeated after removal of the drop with pressured air. Finally the drop was removed, the tooth was dried on air and fixed to the device. In total six tooth samples have been fixed to the device and positioned in the oral cavity after the lower jaw. It remained in the oral cavity for a period of 5 days (day and night). After completion of the required residence time, the device was removed from the oral cavity and the experimental teeth where separated from the device and washed. The hardness was measured according to the Knoop method, six times on each of the tooth samples.
# B: the stage at which the hardness of the tooth surface has been measured with the Knoop method. (before the treatment; after radiation and before addition of protector formulation to the surface; after addition of protector to the surface of the tooth and after residing five days in the oral cavity).
# B: the stage at which the hardness of the tooth surface has been measured with the Knoop method.
# [4] = In-vivo: residual protection, radiated samples after 5 days in oral cavity treated with acetic acid
# From the text: N: number of tooth samples A: hardness(μm) after radiation and 5 days residence in the oral cavity B: hardness after radiation and 5 days in the oral cavity and treatment with acetic acid
# [5] = 4.2% w/w solution, 12 hours oral cavity, acetic acid 0.1N 30 min
# [6] = gel: 4.2% hydroxyethylcellulose, 0.3% NaF, pH 8.8
molecule,measurement,setting,value
"Casein phosphopeptide (CPP) [Product 1, reference compound]","C: Average hardness after treatment, after residing in the oral cavity and treatment with acid",[1]; [5],47.60 (2.53) μm
same,D: average change in hardness (C−B),[1]; [5],6.78 μm
same,B: Average initial hardness of the tooth surface (st. dev.),"[1]; group for 4.2% solution, before treatment",40.82 (0.73) μm
"Partially hydrolyzed phosvitin, (Phos-h) [Product 5]",more protection competence in comparison to natural phosvitin,[2]; versus natural phosvitin,25%
Polymerized (CPP) = (CPP)n [Product 2],PF factor,[2]; 7.2% product/water w/w,58
"Natural phosvitin (Phos) [Product 3, reference compound]",D: average change in hardness (C−B),[1]; 7.5% w/w solution,5.32 μm
"[F-].[Na+] [Product IV, sodium fluoride, reference compound]",Mean hardness (depth of penetration),"[3]; after protector and 5 days oral cavity, 0.1% NaF or 4% bisphosphonate e-polylysine with CaCl2 and KH2PO4",42.77 μm
same,Mean hardness (depth of penetration),"[3]; after radiation, before addition of protector (baseline of group)",40.97 μm
same,delta: change of hardness,"[3]; after radiation, before addition of the formulation",−0.13 μm
same,delta: change of hardness (increase of depth of penetration),[3],1.67 μm
same,delta: change of hardness (increase of depth of penetration),[3]; listed as NaF,1.8 μm
same,Mean hardness (depth of penetration),"[3]; start, before treatment (baseline of group)",41.10 μm
same,C: B−A (increase of depth of penetration by acid),"[4]; acetic acid 0.1N, 30 min, 37° C. after 5 days in oral cavity",6.5 μm
same,B: hardness after radiation and 5 days in the oral cavity and treatment with acetic acid,"[4]; acetic acid 0.1N, pH 5, 30 min, 37° C.",48.4 μm
same,A: hardness after radiation and 5 days residence in the oral cavity,[4]; samples later treated with acid,41.9 μm
same,PF factor,[2]; 0.1% product/water w/w,61
same,PF,[2]; gel with 0.3% sodium fluoride only,68%
same,PF,[2]; [6],68.1
same,delta P,[2]; [6],18.8 μm
"NC(CO)(CO)CO [Product V, Tris(hydroxymethyl)aminoethane, reference compound]",PF factor,[2]; 3.4% product/water w/w,35
